In patent US12532889B2, “Herbicidal compositions comprising glufosinate” (BASF SE, priority 2023, dated 2026):
“And” between values parts separate entries of the source, which are not always exact repeats. Equal entries are not always repeated.

How the values were obtained:
Experiment in all cases: Post-emergence application in field trials (Example A)
Type in all cases: in vivo
ELEIN (Eleusine indica) = details: A-1 25, B-6 252 g ai/ha, water 400 l/ha
[1] = test system: DIGSA (Digitaria sanguinalis); details: for % Herbicidal activity: growth stage 22
Experimental: (§1) In the examples below, using the method of S. R. Colby (1967) “Calculating synergistic and antagonistic responses of herbicide combinations”, Weeds 15, p. 22ff., the value E, which is expected if the activity of the individual active compounds is only additive, was calculated:
(§2) [formula] • where • X=percent activity using active herbicide A at an application rate a; • Y=percent activity using active herbicide B (e.g. glufosinate) at an application rate b; • E=expected activity (in %) by A+B at application rates a+b.
(§3) If the value found experimentally is higher than the value E calculated according to Colby, a synergistic effect is present.
(§4) On field test sites, natural weed infestation or seeded weeds were treated post-emergence of the weeds.
(§5) In the field trials, the weeds were treated as indicated below.
(§6) In the following experiments, the herbicidal activity for the individual herbicidal compositions (solo and mixture applications) was assessed at the indicated days after treatment (DAT). The assessments for the damage on undesired weeds caused by the composition was carried out using a scale from 0 to 100%, compared to the untreated control plants. Here, 0 means no damage and 100 means complete destruction of the plants.

[2] = test system: HORVW (Hordeum vulgare (winter barley))
Experimental: as §1, §2, §3, §4, §5, §6

[3] = test system: ECHCG (Echinocloa crus-galli)
Experimental: as §1, §2, §3, §4, §5, §6

[4] = test system: LOLMU (Lolium multiflorum); details: for % Herbicidal activity: B-6 252 g ai/ha, growth stage 22-25, height 20-25 cm; for % herbicidal activity: Table 6.1, LOLMU growth stage 22-25, height 20-25 cm, 200 l/ha water
Experimental: as §1, §2, §3, §4, §5, §6

ZEAMX (Zea mays) = test system: ZEAMX (Zea mays)
Experimental: as §1, §2, §3, §4, §5, §6

[5] = 21 DAT, B-6 252 g ai/ha, growth stage 23-29, height 20-25 cm
[6] = 21 DAT, B-6 150 g ai/ha, growth stage 23-30, height 15-20 cm
[7] = 21 DAT, B-6 252 g ai/ha, growth stage 23-30, height 15-20 cm
[8] = 42 DAT, B-6 252 g ai/ha, growth stage 15-16, height 27-33 cm

## CP(=O)(O)CC[C@H](N)C(=O)O.N [B-6, glufosinate-P-ammonium]
ELEIN (Eleusine indica); Table 5.1, ELEIN height 5-20 cm, 21 DAT
  % herbicidal activity: 0%
ELEIN (Eleusine indica); Table 5.6, ELEIN growth stage 14-15, height 9-14 cm, 28 DAT
  % herbicidal activity: 40%
[1]; 7 DAT, B-6 252 g ai/ha, height 10-15 cm
  % Herbicidal activity: 75%
[1]; 21 DAT, B-6 252 g ai/ha, growth stage 21-22, height 10-15 cm
  % herbicidal activity: 20%
[1]; 21 DAT, B-6 252 g ai/ha, height 10-15 cm
  % Herbicidal activity: 80%
[1]; 42 DAT, B-6 252 g ai/ha, height 10-15 cm
  % Herbicidal activity: 50%
[1]; Table 6.1, DIGSA growth stage 21-22, height 10-15 cm, A-1 18, B-6 252 g ai/ha, 7 DAT, 200 l/ha water
  % herbicidal activity: 30%
[2]; 7 DAT, B-6 150 g ai/ha, growth stage 23-29, height 20-25 cm
  % Herbicidal activity: 0%
[2]; 7 DAT, B-6 252 g ai/ha, growth stage 23-29, height 20-25 cm
  % Herbicidal activity: 50% and 30%
[2]; 21 DAT, B-6 150 g ai/ha, growth stage 23-29, height 20-25 cm
  % Herbicidal activity: 0%
[2]; [5]
  % Herbicidal activity: 70%
  % herbicidal activity: 30% and 40%
[2]; Table 6.1, HORVW growth stage 23-29, height 20-25 cm, A-1 12.5, B-6 150 g ai/ha, 7 DAT, 200 l/ha water
  % herbicidal activity: 0%
[2]; Table 6.1, HORVW growth stage 23-29, height 20-25 cm, A-1 12.5, B-6 252 g ai/ha, 7 DAT, 200 l/ha water
  % herbicidal activity: 50%
[2]; Table 6.1, HORVW growth stage 23-29, height 20-25 cm, A-1 18, B-6 150 g ai/ha, 7 DAT, 200 l/ha water
  % herbicidal activity: 0%
[2]; Table 6.1, HORVW growth stage 23-29, height 20-25 cm, A-1 18, B-6 252 g ai/ha, 7 DAT, 200 l/ha water
  % herbicidal activity: 40%
[3]; 7 DAT, B-6 252 g ai/ha, growth stage 23-30, height 15-20 cm
  % Herbicidal activity: 60%
[3]; [6]
  % Herbicidal activity: 40%
  % herbicidal activity: 40%
[3]; [7]
  % Herbicidal activity: 70%
  % herbicidal activity: 70%
[3]; 28 DAT, B-6 252 g ai/ha, growth stage 23-30, height 15-20 cm
  % Herbicidal activity: 70% and 60%
[3]; Table 6.1, ECHCG growth stage 23-30, height 15-20 cm, A-1 12.5, B-6 150 g ai/ha, 7 DAT, 200 l/ha water
  % herbicidal activity: 50%
[3]; Table 6.1, ECHCG growth stage 23-30, height 15-20 cm, A-1 12.5, B-6 252 g ai/ha, 7 DAT, 200 l/ha water
  % herbicidal activity: 60%
[3]; Table 6.1, ECHCG growth stage 23-30, height 15-20 cm, A-1 18, B-6 150 g ai/ha, 7 DAT, 200 l/ha water
  % herbicidal activity: 50%
[3]; Table 6.1, ECHCG growth stage 23-30, height 15-20 cm, A-1 18, B-6 252 g ai/ha, 7 DAT, 200 l/ha water
  % herbicidal activity: 60%
[4]; 7 DAT
  % Herbicidal activity: 60%
[4]; 28 DAT
  % Herbicidal activity: 40%
[4]; A-1 12.5, B-6 252 g ai/ha, 7 DAT
  % herbicidal activity: 60%
[4]; A-1 18, B-6 252 g ai/ha, 7 DAT
  % herbicidal activity: 60%
ZEAMX (Zea mays); 21 DAT, B-6 252 g ai/ha, growth stage 15-16, height 27-33 cm
  % Herbicidal activity: 65%
ZEAMX (Zea mays); 21 DAT, B-6 252 g ai/ha, growth stage 15-16, height 50-60 cm
  % herbicidal activity: 30%
ZEAMX (Zea mays); 28 DAT, B-6 252 g ai/ha, growth stage 15-16, height 50-60 cm
  % Herbicidal activity: 75%
ZEAMX (Zea mays); [8]
  % Herbicidal activity: 45% and 50%
  % herbicidal activity: 45%
ZEAMX (Zea mays); Table 6.1, ZEAMX growth stage 15-16, height 50-60 cm, A-1 18, B-6 252 g ai/ha, 7 DAT, 200 l/ha water
  % herbicidal activity: 65%
